Values quoted from earlier work as cited in US8414913B2, “Edible compositions for lowering cholesterol” (Raisio Benecol Oy, priority 2001, dated 2013).

Test system: total and low density lipoprotein (LDL) cholesterol level
Details: diets with high β-glucan content; Ripsin et al. 1992, Braaten et al. 1994

β-glucan
lowering of total and LDL cholesterol level: 8-12%
